Values after ≈ are worked out from the molar mass of the structure shown.
Tests used:
[1] = target: E. coli DNA gyrase (Escherichia coli, UniProt P0AES6); assay: DNA gyrase supercoiling plate assay; assay type: biochemical; conditions: IC50 E. coli gyrase, supercoiling assay
[2] = target: S. aureus DNA gyrase (Staphylococcus aureus, UniProt P0A0K8); assay: DNA gyrase supercoiling plate assay; assay type: biochemical; conditions: for remaining activity at 1 µM: read-out: RA (residual activity) S. aureus gyrase
[3] = target: E. coli topoisomerase IV (Escherichia coli, UniProt P20083); assay: topoisomerase IV relaxation plate assay; assay type: biochemical; conditions: for remaining activity at 1 µM / remaining activity at 10 µM: read-out: RA (residual activity) E. coli topo IV
[4] = target: S. aureus topoisomerase IV (Staphylococcus aureus, UniProt P0C1S7); assay: topoisomerase IV relaxation plate assay; assay type: biochemical; conditions: for remaining activity at 1 µM: read-out: RA (residual activity) S. aureus topo IV
[5] = target: human DNA topoisomerase IIα (Homo sapiens, UniProt P11388); assay: human DNA topoisomerase IIα inhibition; assay type: biochemical; conditions: read-out: RA (residual activity) Human topo IIα
[6] = system: S. aureus ATCC 29213; assay: MIC, broth microdilution; assay type: cell-based, Staphylococcus aureus; conditions: Staphylococcus aureus, ATCC29213, read-out: MIC S. aureus ATCC 29213, broth microdilution
[7] = system: S. aureus ATCC 43300 (MRSA); assay: MIC, broth microdilution; assay type: cell-based; conditions: Staphylococcus aureus, ATCC43300|MRSA, read-out: MIC S. aureus ATCC 43300 (MRSA)
[8] = system: S. aureus ATCC 700699 (VISA); assay: MIC, broth microdilution; assay type: cell-based; conditions: Staphylococcus aureus, ATCC700699|VISA, read-out: MIC S. aureus ATCC 700699 (VISA)
[9] = system: E. faecalis ATCC 29212; assay: MIC, broth microdilution; assay type: cell-based; conditions: Enterococcus faecalis, ATCC29212, read-out: MIC E. faecalis ATCC 29212
[10] = system: E. coli ATCC 25922; assay: MIC, broth microdilution; assay type: cell-based; conditions: Escherichia coli, ATCC25922, read-out: MIC E. coli ATCC 25922
[11] = system: P. aeruginosa ATCC 27853; assay: MIC, broth microdilution; assay type: cell-based; conditions: Pseudomonas aeruginosa, ATCC27853, read-out: MIC P. aeruginosa ATCC 27853
[12] = system: A. baumannii ATCC 17978; assay: MIC, broth microdilution; assay type: cell-based; conditions: Acinetobacter baumannii, ATCC17978, read-out: MIC A. baumannii ATCC 17978
[13] = system: K. pneumoniae ATCC 10031; assay: MIC, broth microdilution; assay type: cell-based; conditions: Klebsiella pneumoniae, ATCC10031, read-out: MIC K. pneumoniae ATCC 10031
[14] = system: E. spp. cloacae ATCC 13047; assay: MIC, broth microdilution; assay type: cell-based; conditions: read-out: MIC E. spp. cloacae ATCC 13047
[15] = system: A. baumannii ATCC 19606; assay: MIC, broth microdilution; assay type: cell-based; conditions: Acinetobacter baumannii, ATCC19606, read-out: MIC A. baumannii ATCC 19606
[16] = system: K. pneumoniae ATCC 700603; assay: MIC, broth microdilution; assay type: cell-based; conditions: Klebsiella pneumoniae, ATCC700603, read-out: MIC K. pneumoniae ATCC 700603
[17] = system: K. aerogenes ATCC 13408; assay: MIC, broth microdilution; assay type: cell-based; conditions: Klebsiella aerogenes, ATCC13408, read-out: MIC K. aerogenes ATCC 13408
[18] = system: MRSA clinical isolate-1; assay: MIC against fluoroquinolone-resistant clinical isolate; assay type: cell-based; conditions: Staphylococcus aureus, read-out: MIC MRSA clinical isolate-1
[19] = system: MRSA clinical isolate-2; assay: as above; assay type: cell-based; conditions: Staphylococcus aureus, read-out: MIC MRSA clinical isolate-2
[20] = system: K. pneumoniae NCTC 13440; assay: as above; assay type: cell-based; conditions: Klebsiella pneumoniae, NCTC13440, read-out: MIC K. pneumoniae NCTC 13440
[21] = system: K. pneumoniae SE K13; assay: as above; assay type: cell-based; conditions: Klebsiella pneumoniae, SEK13, read-out: MIC K. pneumoniae SE K13
[22] = system: K. pneumoniae SE K14; assay: as above; assay type: cell-based; conditions: Klebsiella pneumoniae, SEK14, read-out: MIC K. pneumoniae SE K14
[23] = system: K. pneumoniae K9–K25; assay: as above; assay type: cell-based; conditions: Klebsiella pneumoniae, read-out: MIC K. pneumoniae K9–K25
[24] = system: S. aureus ATCC 29213; assay: spontaneous frequency of resistance; assay type: cell-based, Staphylococcus aureus
[25] = system: K. pneumoniae ATCC 10031; assay: spontaneous frequency of resistance; assay type: cell-based, Klebsiella pneumoniae

human DNA topoisomerase IIα, sequence (P11388 whole entry): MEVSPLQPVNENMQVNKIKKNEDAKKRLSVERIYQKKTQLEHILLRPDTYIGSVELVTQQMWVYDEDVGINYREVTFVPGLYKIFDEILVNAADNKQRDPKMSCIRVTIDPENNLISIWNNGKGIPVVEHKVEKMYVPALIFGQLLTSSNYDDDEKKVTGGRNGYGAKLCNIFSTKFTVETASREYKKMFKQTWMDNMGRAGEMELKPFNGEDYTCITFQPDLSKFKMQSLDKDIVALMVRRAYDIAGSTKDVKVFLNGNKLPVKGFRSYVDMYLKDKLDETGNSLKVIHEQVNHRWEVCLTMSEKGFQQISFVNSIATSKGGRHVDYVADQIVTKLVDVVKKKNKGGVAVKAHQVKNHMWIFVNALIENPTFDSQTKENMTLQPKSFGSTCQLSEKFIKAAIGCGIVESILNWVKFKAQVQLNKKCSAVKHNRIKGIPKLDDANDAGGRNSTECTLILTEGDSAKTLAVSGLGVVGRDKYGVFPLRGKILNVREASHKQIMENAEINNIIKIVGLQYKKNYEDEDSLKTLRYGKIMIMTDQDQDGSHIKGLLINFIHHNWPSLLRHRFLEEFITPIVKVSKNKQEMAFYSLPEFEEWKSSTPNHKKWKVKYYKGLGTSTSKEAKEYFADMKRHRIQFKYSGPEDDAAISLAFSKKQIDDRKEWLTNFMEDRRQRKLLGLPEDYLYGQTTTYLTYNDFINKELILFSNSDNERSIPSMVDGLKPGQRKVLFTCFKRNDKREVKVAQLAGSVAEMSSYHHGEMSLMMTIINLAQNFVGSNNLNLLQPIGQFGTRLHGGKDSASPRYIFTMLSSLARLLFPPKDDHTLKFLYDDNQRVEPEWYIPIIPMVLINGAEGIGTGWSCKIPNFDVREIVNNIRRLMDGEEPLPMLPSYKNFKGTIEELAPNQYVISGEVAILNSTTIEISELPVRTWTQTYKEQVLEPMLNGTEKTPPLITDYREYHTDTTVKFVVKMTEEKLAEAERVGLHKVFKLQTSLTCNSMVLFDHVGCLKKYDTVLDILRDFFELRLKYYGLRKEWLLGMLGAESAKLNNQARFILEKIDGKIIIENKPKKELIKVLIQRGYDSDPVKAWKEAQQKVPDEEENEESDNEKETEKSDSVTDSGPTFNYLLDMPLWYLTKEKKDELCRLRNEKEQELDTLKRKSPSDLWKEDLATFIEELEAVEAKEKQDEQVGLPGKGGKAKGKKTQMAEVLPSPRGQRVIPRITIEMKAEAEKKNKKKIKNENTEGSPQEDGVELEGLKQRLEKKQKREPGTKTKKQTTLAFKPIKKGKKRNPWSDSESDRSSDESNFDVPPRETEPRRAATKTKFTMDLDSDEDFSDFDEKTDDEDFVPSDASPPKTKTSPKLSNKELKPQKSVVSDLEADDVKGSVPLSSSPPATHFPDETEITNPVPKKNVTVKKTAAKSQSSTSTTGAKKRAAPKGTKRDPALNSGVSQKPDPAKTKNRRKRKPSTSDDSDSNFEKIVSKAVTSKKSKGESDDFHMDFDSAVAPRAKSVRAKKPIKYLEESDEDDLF
E. coli topoisomerase IV, sequence (P20083 whole entry): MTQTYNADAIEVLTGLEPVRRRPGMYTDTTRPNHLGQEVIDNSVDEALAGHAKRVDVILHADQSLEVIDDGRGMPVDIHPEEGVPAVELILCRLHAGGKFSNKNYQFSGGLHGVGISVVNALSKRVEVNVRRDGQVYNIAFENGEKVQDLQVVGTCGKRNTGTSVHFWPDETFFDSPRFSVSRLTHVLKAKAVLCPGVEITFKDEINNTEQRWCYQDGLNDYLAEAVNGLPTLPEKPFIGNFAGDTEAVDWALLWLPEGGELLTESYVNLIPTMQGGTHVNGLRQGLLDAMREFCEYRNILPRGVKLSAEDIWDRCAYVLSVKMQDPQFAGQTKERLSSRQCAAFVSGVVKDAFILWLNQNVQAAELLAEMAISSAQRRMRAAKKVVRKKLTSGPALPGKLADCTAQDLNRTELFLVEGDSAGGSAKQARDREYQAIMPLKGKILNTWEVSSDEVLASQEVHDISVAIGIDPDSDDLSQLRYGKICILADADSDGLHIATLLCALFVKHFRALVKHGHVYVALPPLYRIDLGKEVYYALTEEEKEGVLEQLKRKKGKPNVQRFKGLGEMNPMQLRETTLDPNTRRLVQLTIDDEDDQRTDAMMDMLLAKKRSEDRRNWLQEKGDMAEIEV
E. coli topoisomerase IV, sequence (P0AFI2 whole entry partner): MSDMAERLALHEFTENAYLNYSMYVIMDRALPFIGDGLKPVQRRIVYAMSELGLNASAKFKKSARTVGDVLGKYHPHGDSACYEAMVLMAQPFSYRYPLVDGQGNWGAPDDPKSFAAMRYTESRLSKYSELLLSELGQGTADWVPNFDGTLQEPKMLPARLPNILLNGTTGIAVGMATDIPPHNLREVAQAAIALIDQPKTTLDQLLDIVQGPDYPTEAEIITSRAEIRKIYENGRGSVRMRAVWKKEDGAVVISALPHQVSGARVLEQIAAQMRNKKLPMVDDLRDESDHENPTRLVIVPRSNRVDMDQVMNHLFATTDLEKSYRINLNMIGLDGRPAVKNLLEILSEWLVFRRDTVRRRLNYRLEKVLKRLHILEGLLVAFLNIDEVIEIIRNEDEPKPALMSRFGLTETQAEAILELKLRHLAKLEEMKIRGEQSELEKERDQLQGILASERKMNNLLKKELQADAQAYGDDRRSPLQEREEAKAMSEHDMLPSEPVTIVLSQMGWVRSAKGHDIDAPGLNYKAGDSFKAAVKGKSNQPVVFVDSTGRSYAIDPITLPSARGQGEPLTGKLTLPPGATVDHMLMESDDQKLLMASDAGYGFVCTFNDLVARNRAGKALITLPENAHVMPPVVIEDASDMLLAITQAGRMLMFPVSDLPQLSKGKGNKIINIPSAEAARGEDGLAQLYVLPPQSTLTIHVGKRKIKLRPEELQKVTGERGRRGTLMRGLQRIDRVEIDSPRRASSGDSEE

| IC50 [1] | SMILES | remaining activity at 1 µM [3] | MIC [6] | MIC [7] | MIC [8] | MIC [9] | MIC [10] | MIC [11] | MIC [12] | MIC [13] | MIC [14] | MIC [15] | MIC [16] | MIC [17] | further results |
| --- | --- | --- | --- | --- | --- | --- | --- | --- | --- | --- | --- | --- | --- | --- | --- |
| 19.3 nM | Cc1[nH]c(C(=O)Nc2ccc(C(=O)NCC(=O)O)cc2N2CC[C@H](N)C2)c(Cl)c1Cl [Compound 10b, (S)-1-(5-((Carboxymethyl)carbamoyl)-2-(3,4-dichloro-5-methyl-1H-pyrrole-2-carboxamido)phenyl)pyrrolidin-3-aminium chloride] | – | – | – | – | – | – | – | – | – | – | – | – | – | IC50 [2]: 112 nM; IC50 [3]: 958 nM; IC50 [4]: 2560 nM; remaining activity at 10 µM [5]: 82% |
| – | Cc1[nH]c(C(=O)Nc2ccc(C(=O)O)cc2N2CCN(c3ccccc3)CC2)c(Cl)c1Cl [Compound 18h, 4-(3,4-Dichloro-5-methyl-1H-pyrrole-2-carboxamido)-3-(4-phenylpiperazin-1-yl)benzoic acid] | – | > 64 µg/mL | > 64 µg/mL | > 64 µg/mL | > 64 µg/mL | > 64 µg/mL | > 64 µg/mL | > 64 µg/mL | > 64 µg/mL | > 64 µg/mL | – | – | – | remaining activity at 10 µM [3]: 85% |
| 100 nM | COC(=O)c1ccc(NC(=O)c2[nH]c(C)c(Cl)c2Cl)c(N2CCNCC2)c1.Cl [Compound 19a, 4-(2-(3,4-Dichloro-5-methyl-1H-pyrrole-2-carboxamido)-5-(methoxycarbonyl)phenyl)piperazin-1-ium chloride] | 102% | > 32 µg/mL | – | – | – | > 32 µg/mL | > 32 µg/mL | – | – | – | 16 µg/mL | > 32 µg/mL | > 32 µg/mL | remaining activity at 1 µM [2]: 45%; remaining activity at 1 µM [4]: 95% |
| 120 nM | COC(=O)c1ccc(NC(=O)c2[nH]c(C)c(Cl)c2Cl)c(N2CCC[C@H](N)C2)c1.Cl [Compound 19c, (S)-1-(2-(3,4-Dichloro-5-methyl-1H-pyrrole-2-carboxamido)-5-(methoxycarbonyl)phenyl)piperidin-3-aminium chloride] | 79% | 8 µg/mL | – | – | – | > 32 µg/mL | > 32 µg/mL | – | 4 µg/mL | – | 16 µg/mL | > 32 µg/mL | > 32 µg/mL | remaining activity at 1 µM [2]: 27% |
| – | Cc1[nH]c(C(=O)Nc2ccc(C(=O)O)cc2N2CCNCC2)c(Cl)c1Cl.Cl [Compound 20a, 4-(5-Carboxy-2-(3,4-dichloro-5-methyl-1H-pyrrole-2-carboxamido)phenyl)piperazin-1-ium chloride] | 106% | > 32 µg/mL | > 64 µg/mL | > 64 µg/mL | – | > 32 µg/mL | > 32 µg/mL | > 64 µg/mL | > 64 µg/mL | > 64 µg/mL | > 32 µg/mL | > 32 µg/mL | > 32 µg/mL | remaining activity at 1 µM [4]: 92%; remaining activity at 40 µM [5]: 116% |
| – | Cc1[nH]c(C(=O)Nc2ccc(C(=O)O)cc2NC2CCNCC2)c(Cl)c1Cl.Cl [Compound 20d, 4-((5-Carboxy-2-(3,4-dichloro-5-methyl-1H-pyrrole-2-carboxamido)phenyl)amino)piperidin-1-ium chloride] | – | > 64 µg/mL | > 64 µg/mL | > 64 µg/mL | > 64 µg/mL | > 64 µg/mL | > 64 µg/mL | > 64 µg/mL | > 64 µg/mL | > 64 µg/mL | – | – | – | remaining activity at 10 µM [3]: 89% |
| – | Cc1[nH]c(C(=O)Nc2ccc(-c3n[nH]c(=O)o3)cc2N2CCOCC2)c(Cl)c1Cl [Compound 22e, 3,4-Dichloro-5-methyl-N-(2-morpholino-4-(5-oxo-4,5-dihydro-1,3,4-oxadiazol-2-yl)phenyl)-1H-pyrrole-2-carboxamide] | – | 0.25 µg/mL (≈ 0.57 µM) | 0.25 µg/mL (≈ 0.57 µM) | – | 0.125 µg/mL (≈ 0.285 µM) | > 64 µg/mL | > 64 µg/mL | > 64 µg/mL | > 64 µg/mL | > 64 µg/mL | – | – | – | IC50 [3]: 1230 nM; remaining activity at 100 µM [5]: 93%; MIC [18]: 0.5 µg/mL (≈ 1.14 µM); MIC [19]: 0.5 µg/mL (≈ 1.14 µM); MIC [20]: > 64 µg/mL; MIC [21]: > 64 µg/mL; MIC [22]: > 64 µg/mL; MIC [23]: > 64 µg/mL |
| – | Cc1[nH]c(C(=O)Nc2ccc(-c3n[nH]c(=O)o3)cc2N2CCNCC2)c(Cl)c1Cl.Cl [Compound 23a, 4-(2-(3,4-Dichloro-5-methyl-1H-pyrrole-2-carboxamido)-5-(5-oxo-4,5-dihydro-1,3,4-oxadiazol-2-yl)phenyl)piperazin-1-ium chloride] | – | 2 µg/mL | 4 µg/mL | – | 0.5 µg/mL | > 64 µg/mL | > 64 µg/mL | > 64 µg/mL | 0.25 µg/mL | > 64 µg/mL | – | – | – | remaining activity at 100 µM [5]: 86%; MIC [18]: 4 µg/mL; MIC [19]: 2 µg/mL; MIC [20]: > 64 µg/mL; MIC [21]: > 64 µg/mL; MIC [22]: > 64 µg/mL; MIC [23]: > 64 µg/mL; resistance-proneness compared to novobiocin [24]: significantly less resistance-prone compared to novobiocin; resistance-proneness compared to novobiocin [25]: significantly less resistance-prone compared to novobiocin |
| – | Cc1[nH]c(C(=O)Nc2ccc(-c3n[nH]c(=O)o3)cc2NC2CCNCC2)c(Cl)c1Cl.Cl [Compound 23d, 4-((2-(3,4-Dichloro-5-methyl-1H-pyrrole-2-carboxamido)-5-(5-oxo-4,5-dihydro-1,3,4-oxadiazol-2-yl)phenyl)amino)piperidin-1-ium chloride] | – | > 64 µg/mL | > 64 µg/mL | > 64 µg/mL | > 64 µg/mL | > 64 µg/mL | > 64 µg/mL | > 64 µg/mL | 2 µg/mL | > 64 µg/mL | – | – | – | IC50 [3]: 1260 nM; remaining activity at 10 µM [5]: 99% |
| – | Cc1[nH]c(C(=O)Nc2ccc(-c3n[nH]c(=O)o3)cc2OCc2ccccc2)c(Cl)c1Cl [Compound 39, N-(2-(Benzyloxy)-4-(5-oxo-4,5-dihydro-1,3,4-oxadiazol-2-yl)phenyl)-3,4-dichloro-5-methyl-1H-pyrrole-2-carboxamide] | 101% | > 32 µg/mL | > 32 µg/mL | > 32 µg/mL | > 32 µg/mL | > 32 µg/mL | > 32 µg/mL | > 32 µg/mL | > 32 µg/mL | > 32 µg/mL | – | – | – | remaining activity at 100 µM [5]: 104% |

| SMILES | IC50 [1] | remaining activity at 1 µM [3] | MIC [6] | MIC [7] | MIC [8] | MIC [9] | MIC [10] | MIC [11] | MIC [12] | MIC [13] | MIC [14] | MIC [15] | MIC [16] | MIC [17] | further results |
| --- | --- | --- | --- | --- | --- | --- | --- | --- | --- | --- | --- | --- | --- | --- | --- |
| Cc1[nH]c(C(=O)Nc2ccc(C(=O)NCC(=O)O)cc2N2CCN(C(=O)OC(C)(C)C)CC2)c(Cl)c1Cl [Compound 8a, (3-(4-(tert-Butoxycarbonyl)piperazin-1-yl)-4-(3,4-dichloro-5-methyl-1H-pyrrole-2-carboxamido)benzoyl)glycine] | 84.1 nM | 93% | – | – | – | – | – | – | – | – | – | – | – | – | remaining activity at 1 µM [2]: 37%; remaining activity at 1 µM [4]: 22% |
| Cc1[nH]c(C(=O)Nc2ccc(C(=O)O)cc2N2CCC[C@H](N)C2)c(Cl)c1Cl.Cl [Compound 20c, (S)-1-(5-Carboxy-2-(3,4-dichloro-5-methyl-1H-pyrrole-2-carboxamido)phenyl)piperidin-3-aminium chloride] | 134 nM | 78% | > 32 µg/mL | > 64 µg/mL | > 64 µg/mL | – | > 32 µg/mL | > 32 µg/mL | > 64 µg/mL | > 64 µg/mL | > 64 µg/mL | > 32 µg/mL | > 32 µg/mL | > 32 µg/mL | – |
